Holding throughout (format): cell-based
The test system of assay [1] is alpha-smooth muscle actin (α-SMA). Nature of the assay: Inhibition of TGF-β induced expression of alpha-smooth muscle actin (α-SMA) in CFSC cells (western blot). As to conditions: compound at 10 μM, TGF-β (10 ng/mL), 24 hours, band intensity vs TGF-β only. An outline of the steps: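 Values are percent reduction of α-SMA band intensity relative to cells given TGF-β alone, quantified by Western blot densitometry with β-actin probed. Compound was applied at 10 μM alongside 10 ng/mL TGF-β to serum-free CFSC cultures for 24 h at 37 °C.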

Assay [2] relates to MDA-MB-231 (breast cancer). The assay can be described thus: Antiproliferative activity (CCK-8 cell viability), MDA-MB-231. As to conditions: Homo sapiens, 72 h, read-out: Antiproliferative activity in cancerous cells, MDA-MB-231 (inhibition of cell growth); for inhibition at 3.3 µM: Compound concentration: 3.3 μM; for inhibition at 10 µM: Compound concentration: 10 μM. An outline of the steps:
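MDA-MB-231 breast cancer cells, grown in DMEM with 10% FBS, were plated in 96-well plates at 2,000-5,000 cells/well. Once attached, they were exposed to compound and incubated at 37° C. for 72 h. Viability was then measured with CCK-8 (10 μL per well, 4 h at 37° C.) by absorbance at 450 nm, relative to DMSO vehicle wells.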

Assay [3] deals with HepG2 (liver cancer). The assay can be described thus: Antiproliferative activity (CCK-8 cell viability), HepG2. The conditions noted are these: Homo sapiens, 72 h, read-out: Antiproliferative activity in cancerous cells, HepG2 (inhibition of cell growth); for inhibition at 3.3 µM: Compound concentration: 3.3 μM; for inhibition at 10 µM: Compound concentration: 10 μM. Summed up:
(§1)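 Cells grown in DMEM (HepG2, SW480), MEM (HeLa) or F-12K (A549), each with 10% FBS, then exposed to compound at 3.3, 10 or 30 μM for 72 h at 37 °C. CCK-8 absorbance at 450 nm; viability expressed as percent of DMSO-treated cells, graded as growth inhibition bands.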

Assay [4] deals with SW480 (colon cancer). Nature of the assay: Antiproliferative activity (CCK-8 cell viability), SW480. The conditions noted are these: Homo sapiens, 72 h, read-out: Antiproliferative activity in cancerous cells, SW480 (inhibition of cell growth); for inhibition at 3.3 µM: Compound concentration: 3.3 μM; for inhibition at 10 µM: Compound concentration: 10 μM. An outline of the steps: as §1

For assay [5], the system named is B16F10 (malignant melanoma). The assay can be described thus: Antiproliferative activity (CCK-8 cell viability), B16F10. The conditions noted are these: Mus musculus, 72 h, read-out: Antiproliferative activity in cancerous cells, B16F10 (inhibition of cell growth); for inhibition at 3.3 µM: B16-F10, Compound concentration: 3.3 μM; for inhibition at 10 µM: B16-F10, Compound concentration: 10 μM. Summed up:
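B16F10 melanoma cells grown in DMEM with 10% FBS were plated in 96-well plates at 2,000-5,000 cells/well. After attachment they were exposed to compound in medium for 72 h at 37° C. CCK-8 solution (10 μL) was then added, and after 4 h at 37° C absorbance was read at 450 nm.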

In assay [6] the test system is A431 (epidermoid carcinoma). The assay can be described thus: Antiproliferative activity (CCK-8 cell viability), A431. As to conditions: Homo sapiens, 72 h, read-out: Antiproliferative activity in cancerous cells, A431 (inhibition of cell growth); for inhibition at 3.3 µM: A-431, Compound concentration: 3.3 μM; for inhibition at 10 µM: A-431, Compound concentration: 10 μM. Summed up:
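A431 epidermoid carcinoma cells grown in DMEM with 10% FBS were plated at 2,000-5,000 cells/well in 96-well plates. After attachment they were exposed to compound at 3.3 μM, 10 μM, or 30 μM for 72 h at 37° C. Viability was then assessed by CCK-8 against DMSO vehicle-treated wells.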

Assay [7] concerns A549 (lung adenocarcinoma). The assay can be described thus: Antiproliferative activity (CCK-8 cell viability), A549. As to conditions: Homo sapiens, 72 h, read-out: Antiproliferative activity in cancerous cells, A549 (inhibition of cell growth); for inhibition at 3.3 µM: Compound concentration: 3.3 μM; for inhibition at 10 µM: Compound concentration: 10 μM. An outline of the steps:
as §1

For assay [8], the system named is HeLa (cervical cancer). The assay can be described thus: Antiproliferative activity (CCK-8 cell viability), HeLa. As to conditions: Homo sapiens, 72 h, read-out: Antiproliferative activity in cancerous cells, HELA (inhibition of cell growth); for inhibition at 3.3 µM: Compound concentration: 3.3 μM; for inhibition at 10 µM: Compound concentration: 10 μM. Summed up:
as §1

With `CCCC1=C(CC(=O)O)c2cc(F)ccc2/C1=C\c1ccc(Oc2ccc(F)cc2)cc1` [C8, (Z)-2-(5-Fluoro-1-(4-(4-fluorophenoxy)benzylidene)-2-propyl-1H-inden-3-yl)-acetic acid], the inhibition at 10 µM is greater than 80% in assay [1]; no less than 50% in assay [2]; no less than 50% in assay [3]; no less than 50% in assay [4]; no less than 50% in assay [5]; no less than 50% in assay [6]. In addition, the inhibition at 10 µM in assay [7] and in assay [8] was no less than 50% each time. Also, the inhibition at 3.3 µM is no less than 50% in assay [2]; no less than 50% in assay [3]; less than 30% in assay [4]; 30 to 50% in assay [5]; less than 30% in assay [6]; no less than 50% in assay [7]. Further, the inhibition at 3.3 µM in assay [8] was no less than 50%.

On to `COc1ccc(/C=C2/C(C)=C(CC(=O)O)c3cc(F)ccc32)c(OCc2ccccc2)c1` [B29, (Z)-2-(1-(2-(Benzyloxy)-4-methoxybenzylidene)-5-fluoro-2-methyl-1H-inden-3-yl)acetic acid], for which the inhibition at 10 µM in assay [1] was greater than 80%; in assay [2] it was 30 to 50%; in assay [3] it was no less than 50%; in assay [4], less than 30%; in assay [5], no less than 50%; in assay [6] it was no less than 50%. Further, the inhibition at 10 µM is less than 30% in assay [7] and no less than 50% in assay [8]. The inhibition at 3.3 µM in assay [2] is 30 to 50%; in assay [3], less than 30%; in assay [4], less than 30%; in assay [5], less than 30%; in assay [6] it was less than 30%; in assay [7], less than 30%. Moreover, in assay [8], the inhibition at 3.3 µM was less than 30%.

Turning to `CC1=C(CC(=O)NCCN(C)C)c2cc(F)ccc2/C1=C\c1ccc(Oc2ccc(F)cc2)cc1` [C38, (Z)-N-(2-(Dimethylamino)ethyl)-2-(5-fluoro-1-(4-(4-fluorophenoxy)benzylidene)-2-methyl-1H-inden-3-yl)acetamide], the inhibition at 10 µM in assay [1] was greater than 80%; in assay [2] it was no less than 50%; in assay [3], no less than 50%; in assay [4] it was no less than 50%; in assay [5] it was no less than 50%; in assay [6] it was no less than 50%. Also, the inhibition at 10 µM in assay [7] and in assay [8] was no less than 50% in each case. The inhibition at 3.3 µM in assay [2] is less than 30%; in assay [3], less than 30%; in assay [4], less than 30%; in assay [5] it was no less than 50%; in assay [6], less than 30%; in assay [7], no less than 50%. Moreover, the inhibition at 3.3 µM in assay [8] was less than 30%.

On to `O=C(O)CC1=C(CC2CCCC2)/C(=C/c2ccc(Oc3ccc(F)cc3)cc2)c2ccc(F)cc21` [C7, (Z)-2-(2-(Cyclopentylmethyl)-5-fluoro-1-(4-(4-fluorophenoxy)benzylidene)-1H-inden-3-yl)acetic acid], for which the inhibition at 10 µM in assay [1] was greater than 80%; in assay [2], no less than 50%; in assay [3], no less than 50%; in assay [4], no less than 50%; in assay [5], no less than 50%; in assay [6], no less than 50%. Besides, the inhibition at 10 µM in assay [7] and in assay [8] was no less than 50% throughout. In addition, the inhibition at 3.3 µM was no less than 50% in assay [2]; 30 to 50% in assay [3]; no less than 50% in assay [4]; no less than 50% in assay [5]; no less than 50% in assay [6]; no less than 50% in assay [7]. The inhibition at 3.3 µM in assay [8] was no less than 50%.

For the origin of these results see patent US20260184663A1, “INDENE COMPOUNDS, PHARMACEUTICAL COMPOSITIONS THEREOF, AND THEIR THERAPEUTIC APPLICATIONS” (NucMito Pharmaceuticals co. Ltd., priority 2022, published 2026).
